IC50 data for 15 compounds are collected here from patent US10280150B2 (FORMA TM2, Inc., priority 2014, dated 2019).

Assay [1] addresses IDH1-R132H recombinant protein (Homo sapiens (Human), UniProt O75874, R132H). Put plainly: IDH1-R132H enzymatic assay (inhibition of NADPH consumption, diaphorase/resazurin readout). The assay is classed as biochemical. The settings on record: read-out: Enzyme IDH1 R132H IC50 (Range). Here is the method: (§1) Assays were performed in a 384-well black plate. An aliquot of 250 nL of compound was incubated with 10 μL of 30 nM IDH1-R132H or 10 nM IDH1-R132C recombinant protein in assay buffer (50 mM Tris pH=7.5, 150 mM NaCl, 5 mM MgCl2, 0.1% (w/v) Bovine Serum Albumin, and 0.01% Triton X-100) in each well at 25° C. for 15 minutes. After the plate was centrifuged briefly, an aliquot of 10 μL of 2 mM α-ketoglutarate and 20 μM NADPH solution prepared in assay buffer was then added to each well and the reaction was maintained at 25° C. for 45 minutes. An aliquot of 10 μL of diaphorase solution (0.15 U/mL diaphorase and 30 µM Resazurin in assay buffer) was added to each well. The plate was maintained at 25° C. for 15 minutes and then read on a plate reader with excitation and emission wavelengths at 535 nm and 590 nm, respectively. The IC50 of a given compound was calculated by fitting the dose response curve of inhibition of NADPH consumption at a given concentration with the four parameter logistic equation.

For assay [2], the target named is IDH1-R132C recombinant protein (Homo sapiens (Human), UniProt O75874, R132C). Put plainly: IDH1-R132C enzymatic assay (inhibition of NADPH consumption, diaphorase/resazurin readout). In kind it is biochemical. The note with it: read-out: Enzyme IDH1 R132C IC50 (Range). How it is done:
as §1
For orientation: Alamar Blue is a resazurin reagent that responds to reducing activity.

A value given as a limit tells only on which side of the number the result lay.

Chain of IDH1-R132C recombinant protein (O75874 whole entry R132C): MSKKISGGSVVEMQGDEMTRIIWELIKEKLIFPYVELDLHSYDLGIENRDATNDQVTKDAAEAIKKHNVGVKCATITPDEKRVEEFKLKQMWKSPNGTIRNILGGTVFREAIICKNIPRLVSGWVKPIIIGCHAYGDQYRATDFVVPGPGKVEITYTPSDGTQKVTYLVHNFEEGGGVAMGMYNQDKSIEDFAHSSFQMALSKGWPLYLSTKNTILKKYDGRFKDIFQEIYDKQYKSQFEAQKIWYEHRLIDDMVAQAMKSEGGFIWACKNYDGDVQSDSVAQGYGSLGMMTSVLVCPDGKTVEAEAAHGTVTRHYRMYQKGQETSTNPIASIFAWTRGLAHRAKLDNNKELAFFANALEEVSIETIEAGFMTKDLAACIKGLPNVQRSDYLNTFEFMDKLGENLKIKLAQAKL
Chain of IDH1-R132H recombinant protein (O75874 whole entry R132H): as the sequence (O75874 whole entry R132C) above, with C132H counted along it

The term IC50 denotes the point on the concentration scale where inhibition reaches its midpoint. With `COc1ccccc1-c1ccnc(N[C@@H](C)c2cc3cc(Cl)ccc3[nH]c2=O)n1` [Compound I-102], the IC50 in assay [1] and in assay [2] was 1000 to 10000 nM each time.
For `CC(C)[C@H]1COCCN1c1ccnc(N[C@@H](C)c2cc3cc(Cl)ccc3[nH]c2=O)n1` [Compound I-104, 6-chloro-3-((S)-1-(4-((S)-3-isopropylmorpholino)pyrimidin-2-ylamino)ethyl) quinolin-2(1H)-one], the half-maximal inhibitory concentration (IC50) in assay [1] was 100 to 1000 nM; in assay [2], 1000 to 10000 nM.
As for `C[C@H](Nc1nccc([S+](C)[O-])n1)c1cc2cc(Cl)ccc2[nH]c1=O` (stereo partly drawn) [Compound I-111], the IC50 in assay [1] was less than 100 nM; in assay [2], 100 to 1000 nM.
For `CC(C)NC(=O)c1ccnc(N[C@@H](C)c2cc3cc(Cl)ccc3[nH]c2=O)n1` [Compound I-117], the IC50 in assay [1] was in the range of 100 to 1000 nM; in assay [2], 1000 to 10000 nM.
On to `CC(C)CS(=O)(=O)Cc1ccnc(N[C@@H](C)c2cc3cc(Cl)ccc3[nH]c2=O)n1` [Compound I-121, (S)-6-Chloro-3-(1-(4-(isobutylsulfonylmethyl)pyrimidin-2-ylamino)ethyl)quinolin-2(1H)-one], for which the IC50 in assay [1] and in assay [2] was 100 to 1000 nM each time.
For the compound `C[C@H](Nc1nccc(CS(C)(=O)=O)n1)c1cc2cc(Cl)ccc2[nH]c1=O` [Compound I-133], the concentration for half-maximal inhibition (IC50) in assay [1] fell in the range of 100 to 1000 nM; in assay [2], 1000 to 10000 nM.
Take `CC(c1ccnc(N[C@@H](C)c2cc3cc(Cl)ccc3[nH]c2=O)n1)S(C)(=O)=O` (stereo partly drawn) [Compound I-135, 6-Chloro-3-((1S)-1-((4-(1-(methylsulfonyl)ethyl)pyrimidin-2-yl)amino)ethyl) quinolin-2(1H)-one]: the concentration for half-maximal inhibition (IC50) in assay [1] is 1000 to 10000 nM; in assay [2], more than 10000 nM.
Taken in the same sequence, the figures for `C[C@H](Nc1nccc(N2CCCC2=O)n1)c1cc2cc(Cl)ccc2[nH]c1=O` [Compound I-138] were less than 100 nM and 100 to 1000 nM.
For `COc1nc(N[C@H](C)c2cc3cc(Cl)c(F)cc3[nH]c2=O)ncc1C#N` [Compound I-141, (R)-2-((1-(6-chloro-7-fluoro-2-oxo-1,2-dihydroquinolin-3-yl)ethyl)amino)-4-methoxypyrimidine-5-carbonitrile], the IC50 in assay [1] and in assay [2] was more than 10000 nM in each case.
As for `COc1cc2[nH]c(=O)c([C@@H](C)Nc3ncc(C#N)c(OC)n3)cc2cc1Cl` [Compound I-144, (R)-2-((1-(6-Chloro-7-methoxy-2-oxo-1,2-dihydroquinolin-3-yl)ethyl)amino)-4-methoxypyrimidine-5-carbonitrile], the figures for the 50% inhibitory concentration (IC50) in assay [1] and in assay [2] were 100 to 1000 nM and 1000 to 10000 nM, respectively.
Take `COc1nc(NC(C)c2cc3cc(Cl)c(OCc4ccccn4)cc3[nH]c2=O)ncc1C#N` (stereo not drawn) [Compound I-150]: the IC50 in assay [1] and in assay [2] was less than 100 nM each time.
For `O=C1OCCN1c1ccnc(NC2(c3cc4cc(Cl)ccc4[nH]c3=O)CC2)n1` [Compound I-168], the IC50 in assay [1] is 100 to 1000 nM; in assay [2], 1000 to 10000 nM.
As for `COc1nc(NC2(c3cc4cc(Cl)ccc4[nH]c3=O)CC2)ncc1C#N` [Compound I-169, 2-((1-(6-Chloro-2-oxo-1,2-dihydroquinolin-3-yl)cyclopropyl)amino)-4-methoxypyrimidine-5-carbonitrile], the concentration for half-maximal inhibition (IC50) is 100 to 1000 nM in assay [1] and 1000 to 10000 nM in assay [2].
As to `COc1nc(NC(C)c2cc3cc(Cl)c(OCC4CC(F)(F)C4)cc3[nH]c2=O)ncc1C#N` (stereo not drawn) [Compound I-172, 2-((1-(6-chloro-7-((3,3-difluorocyclobutyl)methoxy)-2-oxo-1,2-dihydroquinolin-3-yl)ethyl)amino)-4-methoxypyrimidine-5-carbonitrile], the concentration for half-maximal inhibition (IC50) in assay [1] is less than 100 nM; in assay [2] it was 100 to 1000 nM.
Take `CC(C)n1cncc1-c1ccnc(N[C@@H](C)c2cc3cc(Cl)ccc3n(C)c2=O)n1` [Compound I-173, (S)-6-chloro-3-(1-((4-(1-isopropyl-1H-imidazol-5-yl)pyrimidin-2-yl)amino)ethyl)-1-methylquinolin-2(1H)-one]: the IC50 in assay [1] and in assay [2] was less than 100 nM each time.
